# Measurements: patent US11873291B2, “Quinoline cGAS antagonist compounds” (ImmuneSensor Therapeutics, Inc., priority 2020, dated 2024)
# Read-outs that look alike come from different tables or passages of the source.
# What was measured:
# [1] = system: cGAS activity in Reporter THP1 cell line; experiment: Cellular assay to measure cGAS activity: ISRE-Gaussia luciferase reporter THP1 cells transfected with ISD; format: cell-based; settings: Homo sapiens
# Description: Cellular assay to measure cGAS activity: Reporter THP1 cell line harboring a gene encoding Gaussia Luciferase under the control of 5 tandem repeats of interferon-stimulated response elements (ISRE) fused to an ISG54 minimal promoter was used to test inhibition of cGAS activity by synthetic compounds in human cells. These cells were plated on 96-well plates at 0.3×10^6/well and incubated with serial dilutions of compounds or DMSO for 5 min, followed by transfection of 2 μg/mL of ISD (Interferon Stimulatory DNA, a 45 bp DNA oligo) or mock transfected using lipofectamine 2000 (Life Technology) method, according to manufacturer's instructions. 16 hours later, 15 μL of the media from each well was transferred to a new plate, 50 μL of solution containing 50 mM Hepes-NaOH, pH 6.5, 50 mM NaCl, 10 mM EDTA, 1 μM of coelenterazine was added to each well and luminescence was measured immediately. Fold increase in luminescence compared to mock transfection was plotted against concentrations of each compound, and IC50 is calculated using Graphpad. To evaluate the specificity of a compound, the same procedure was performed except that cells were transfected with 2 μg/mL poly(I:C) or infected with Sendai Virus (SeV) at 50 Unit/mL, which are known to activate the RIG-I-MAVS pathway. A specific inhibitory compound should inhibit interferon induction by DNA but have minimal effect on poly(I:C) or Sendai virus induced interferon reporter gene expression.
# The letter codes for cGAS IC50 include: A (<2 μM); B (2-10 μM); C (>10 μM).
# [2] = target: T1, recombinant human cGAS (aa147-522) (Homo sapiens, UniProt Q8N884); experiment: In vitro inhibition assay of cGAS activity (ATP consumption, KinaseGlo Max); format: biochemical
# T1 construct: recombinant human cGAS (aa147-522); His6-SUMO (cleaved yes); made in house; host or cells: E. coli BL21/pLys
# T1 sequence (Q8N884 147-522): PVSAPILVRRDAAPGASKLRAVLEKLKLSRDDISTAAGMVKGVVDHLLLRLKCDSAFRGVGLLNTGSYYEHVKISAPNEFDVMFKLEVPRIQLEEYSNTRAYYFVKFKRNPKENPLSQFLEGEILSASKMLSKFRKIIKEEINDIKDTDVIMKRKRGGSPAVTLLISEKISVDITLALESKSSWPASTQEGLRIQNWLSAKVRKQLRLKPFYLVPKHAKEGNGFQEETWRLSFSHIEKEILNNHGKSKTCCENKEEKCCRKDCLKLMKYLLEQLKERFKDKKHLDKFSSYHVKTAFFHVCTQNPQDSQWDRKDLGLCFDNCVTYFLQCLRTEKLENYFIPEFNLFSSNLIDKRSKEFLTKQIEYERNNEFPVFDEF
# How it was run: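 IC50 came from plotting % ATP consumption against log compound concentration, with leftover ATP detected by KinaseGlo Max chemiluminescence. Reactions ran 20 min at 37 °C with 1.5 μg/mL human cGAS (aa147-522), 6.6 μM ATP, 0.1 mM GTP and 0.01 mg/mL DNA at pH 7.5.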
# [3] = THP-1, Table 4, Gaussia luciferase
# [4] = Table 3, read-out: cGAS Inhibition Results IC50
# [5] = THP-1, untitled table after Table 4 (continuation)
# [6] = Table 2, read-out: cGAS Inhibition Results IC50
SMILES,"IC50 [1, 3]","IC50 [2, 4]","IC50 [1, 5]","IC50 [2, 6]"
COC(=O)[C@@H]1C[C@H]2C[C@H]2N1c1cc(-n2ccnc2)c2ccc(Cl)c(Cl)c2n1 [I-591],2000 to 10000 nM,2000 to 30000 nM,,
C[C@H]1CC[C@@H](C(=O)O)N1c1cc(-n2ccnc2)c2ccc(Cl)c(Cl)c2n1 [I-507],2000 to 10000 nM,< 2000 nM,,
COC(=O)CC(C)OC[C@@H]1CCCN1c1cc(-n2ccnc2)c2ccc(Cl)c(Cl)c2n1 (stereo partly drawn) [I-718],< 2000 nM,2000 to 30000 nM,,
O=C(O)CCCCCNc1cc(-c2cn[nH]c2)c2ccc(Cl)c(Cl)c2n1 [I-830],,< 2000 nM,< 2000 nM,
COC(=O)C(F)COC[C@@H]1CCCN1c1cc(-n2ccnc2)c2ccc(Cl)c(Cl)c2n1 (stereo partly drawn) [I-700],2000 to 10000 nM,< 2000 nM,,
COC(=O)[C@@H]1C[C@H](F)CN1c1cc(-n2ccnc2)c2ccc(Cl)c(Cl)c2n1 [I-575],2000 to 10000 nM,2000 to 30000 nM,,
COC(=O)[C@@H]1C[C@@H](C)CN1c1cc(-n2ccnc2)c2ccc(Cl)c(Cl)c2n1 [I-585],< 2000 nM,2000 to 30000 nM,,
"COC(=O)CCN(C)C[C@@H]1CCCN1c1cc(-n2ccnc2)c2ccc(Cl)c(Cl)c2n1 [I-755, methyl (S)-3-(((1-(7,8-dichloro-4-(1H-imidazol-1-yl)quinolin-2-yl)pyrrolidin-2-yl)methyl)(methyl)amino)propanoate]",,> 30000 nM,> 10000 nM,
O=C(O)[C@@H]1C[C@@H](F)CN1c1cc(-n2ccnc2)c2ccc(Cl)c(Cl)c2n1 [I-322],> 10000 nM,,,< 2000 nM
CO[C@H]1C[C@@H](COCCC(=O)O)N(c2cc(-n3ccnc3)c3ccc(Cl)c(Cl)c3n2)C1 [I-797],,< 2000 nM,< 2000 nM,
COc1ccc2c(-n3ccnc3)cc(N3CCC[C@H]3COCCC(=O)O)nc2c1Cl [I-856],,< 2000 nM,2000 to 10000 nM,
CC1CCN(c2cc(-n3ccnc3)c3ccc(Cl)c(Cl)c3n2)C1C(=O)O (stereo not drawn) [I-473],< 2000 nM,< 2000 nM,,
O=C(O)CCCC1CCCN(c2cc(-n3ccnc3)c3ccc(Cl)c(Cl)c3n2)C1 (stereo not drawn) [I-739],< 2000 nM,< 2000 nM,,
O=C(O)CCOC[C@@H]1CN(c2cc(-c3cn[nH]c3)c3ccc(Cl)c(Cl)c3n2)CCO1 [I-741],2000 to 10000 nM,< 2000 nM,,
O=C(O)CCC[C@@H]1CCCN1c1cc(-n2ccnc2)c2ccc(Cl)c(Cl)c2n1 [I-682],< 2000 nM,< 2000 nM,,
"O=C(O)COC[C@@H](O)[C@@H]1CCCN1c1cc(-n2ccnc2)c2ccc(Cl)c(Cl)c2n1 [I-725, 2-((S)-2-((S)-1-(7,8-dichloro-4-(1H-imidazol-1-yl)quinolin-2-yl)pyrrolidin-2-yl)-2-hydroxyethoxy)acetic acid]",> 10000 nM,< 2000 nM,,
O=C(O)CCOC[C@H]1CCCN1c1cc(-n2ccnc2)c2ccc(Cl)c(Cl)c2n1 [I-674],2000 to 10000 nM,< 2000 nM,,
O=C(O)CCOC[C@@H]1[C@@H]2CC2CN1c1cc(-n2ccnc2)c2ccc(Cl)c(Cl)c2n1 (stereo in doubt) [I-809],,,< 2000 nM,
COC(=O)CNC(=O)C[C@@H]1CCCN1c1cc(-n2ccnc2)c2ccc(Cl)c(Cl)c2n1 [I-531],,< 2000 nM,,

SMILES,"IC50 [1, 3]","IC50 [2, 4]","IC50 [1, 5]","IC50 [2, 6]"
CC(C)COC(=O)[C@@H]1[C@@H](O)CCN1c1cc(-n2ccnc2)c2ccc(Cl)c(Cl)c2n1 [I-602],,2000 to 30000 nM,,
COC(=O)C12CC(C)(CN1c1cc(-n3ccnc3)c3ccc(Cl)c(Cl)c3n1)C2 [I-580],,> 30000 nM,,
CC(C)c1ccc2c(-c3cn[nH]c3)cc(NCCS(N)(=O)=O)nc2c1 [I-269],,,,> 30000 nM
CC1(C)C2[C@@H](C(=O)O)N(c3cc(-n4ccnc4)c4ccc(Cl)c(Cl)c4n3)C[C@@H]21 (stereo partly drawn) [I-517],,< 2000 nM,,
CN(CCNS(C)(=O)=O)c1cc(-n2ccnc2)c2ccc(Cl)cc2n1 [I-234],,,,< 2000 nM
O=C(O)C1CCCCN1C(=O)[C@@H]1CCCN1c1cc(-n2ccnc2)c2ccc(Cl)c(Cl)c2n1 (stereo partly drawn) [I-547],,2000 to 30000 nM,,
O=C(O)[C@@H]1CCCCN1c1cc(-c2cn[nH]c2)c2ccc(Cl)c(Cl)c2n1 [I-128],,,,2000 to 30000 nM
C[C@H](Nc1cc(-c2cn[nH]c2)c2ccc(Cl)c(Cl)c2n1)C(=O)O [I-181],,,,> 30000 nM
OC1CC2CCC(C1)N2c1cc(-n2ccnc2)c2ccc(Cl)c(Cl)c2n1 (stereo not drawn) [I-490],,< 2000 nM,,
"O=C(O)C1CN(c2cc(-n3ccnc3)c3ccc(Cl)c(Cl)c3n2)CCN1C(=O)CO (stereo not drawn) [I-83, 4-(7,8-dichloro-4-(1H-imidazol-1-yl)quinolin-2-yl)-1-(2-hydroxyacetyl)piperazine-2-carboxylic acid]",,,,2000 to 30000 nM
Brc1ccc2c(-n3cncn3)ccnc2c1 [I-418],,,,> 30000 nM
Cc1cc(N(C)CC(N)=O)c2ccc(Cl)c(Cl)c2n1 [I-314],,,,> 30000 nM
COC(=O)CCO[C@@H]1CCN(c2cc(-n3ccnc3)c3ccc(Cl)c(Cl)c3n2)C1 [I-769],,2000 to 30000 nM,,
Nc1ccc(-c2cc(-n3ccnc3)c3ccc(Cl)cc3n2)cc1C(=O)O [I-20],,,,< 2000 nM
CS(=O)(=O)C1CCCN(c2cc(-n3ccnc3)c3ccc(Cl)cc3n2)C1 (stereo not drawn) [I-117],,,,2000 to 30000 nM
O=C(O)CNc1cc(-c2cn[nH]c2)nc2c(Cl)cc(Cl)cc12 [I-288],,,,< 2000 nM
O=C(O)C1CCN(c2cc(-n3ccnc3)c3ccc(Cl)cc3n2)C1 (stereo not drawn) [I-445],,,,2000 to 30000 nM
CN(CCC(=O)N1CCCC(CO)C1)c1cc(-c2cn[nH]c2)c2ccc(Cl)c(Cl)c2n1 (stereo not drawn) [I-199],,,,2000 to 30000 nM
O=C(NO)[C@@H]1[C@@H](O)CCN1c1cc(-n2ccnc2)c2ccc(Cl)c(Cl)c2n1 [I-558],,< 2000 nM,,

# More lines, now with the values ahead:
"IC50 [1, 3]","IC50 [2, 4]","IC50 [1, 5]","IC50 [2, 6]",SMILES
< 2000 nM,< 2000 nM,,,CN(CCCOCCC(=O)O)c1cc(-n2ccnc2)c2ccc(Cl)c(Cl)c2n1 [I-692]
,< 2000 nM,< 2000 nM,,C[C@H]1CCN(c2cc(-n3ccnc3)c3ccc(Cl)c(Cl)c3n2)[C@@H]1COCCC(=O)O [I-792]
,< 2000 nM,2000 to 10000 nM,,CN(CCOc1ccccc1C(=O)O)c1cc(-n2ccnc2)c2ccc(Cl)c(Cl)c2n1 [I-842]
> 10000 nM,< 2000 nM,,,O=C(O)CCOCC1CN(c2cc(-n3ccnc3)c3ccc(Cl)c(Cl)c3n2)C1 [I-689]
> 10000 nM,< 2000 nM,,,O=C(O)CCOC[C@@H]1[C@@H](O)CCN1c1cc(-n2ccnc2)c2ccc(Cl)c(Cl)c2n1 [I-698]
,< 2000 nM,< 2000 nM,,O=C(O)c1ccccc1OCCNc1cc(-n2ccnc2)c2ccc(Cl)c(Cl)c2n1 [I-886]
,< 2000 nM,> 10000 nM,,"O=C(O)C[C@@H]1[C@H](O)CCN1c1cc(-n2ccnc2)c2ccc(Cl)c(Cl)c2n1 [I-781, 2-((2R,3R)-1-(7,8-dichloro-4-(1H-imidazol-1-yl)quinolin-2-yl)-3-hydroxypyrrolidin-2-yl)acetic acid]"
,< 2000 nM,2000 to 10000 nM,,CN(CCOc1cccc(CC(=O)O)c1)c1cc(-n2ccnc2)c2ccc(Cl)c(Cl)c2n1 [I-843]
,< 2000 nM,> 10000 nM,,"O=C(O)C[C@@H]1[C@@H](O)CCN1c1cc(-n2ccnc2)c2ccc(Cl)c(Cl)c2n1 [I-785, 2-((2R,3S)-1-(7,8-dichloro-4-(1H-imidazol-1-yl)quinolin-2-yl)-3-hydroxypyrrolidin-2-yl)acetic acid]"
,< 2000 nM,2000 to 10000 nM,,O=C(O)CCc1cccc(Nc2cc(-n3ccnc3)c3ccc(Cl)c(Cl)c3n2)c1 [I-883]
2000 to 10000 nM,,,,O=C(O)C1CC[C@H](c2ccccc2)N1c1cc(-n2ccnc2)c2ccc(Cl)c(Cl)c2n1 (stereo partly drawn) [I-487]
,< 2000 nM,,,"CN(CCN(Cc1cccc(C(=O)O)c1)S(C)(=O)=O)c1cc(-n2ccnc2)c2ccc(Cl)c(Cl)c2n1 [I-636, 3-((N-(2-((7,8-dichloro-4-(1H-imidazol-1-yl)quinolin-2-yl)(methyl)amino)ethyl)methylsulfonamido)methyl)benzoic acid]"
,,,< 2000 nM,CN(CCO[PH](=O)O)c1cc(-n2ccnc2)c2ccc(Cl)c(Cl)c2n1 [I-255]
,,,< 2000 nM,O=C(O)[C@@H]1[C@@H](O)CCN1c1cc(-n2ccnc2)c2ccc(Cl)c(Cl)c2n1 [I-345]
,,,< 2000 nM,COCCN(C)c1cc(-n2ccnc2)c2ccc(Cl)c(Cl)c2n1 [I-244]
,2000 to 30000 nM,,,COC(=O)[C@@H]1Cc2ccccc2N1c1cc(-n2ccnc2)c2ccc(Cl)c(Cl)c2n1 [I-581]
,< 2000 nM,,,CN(CCNC(=O)C1CCCC1C(=O)O)c1cc(-n2ccnc2)c2ccc(Cl)c(Cl)c2n1 (stereo not drawn) [I-622]
,,,> 30000 nM,O=C(O)[C@@H]1C[C@@H](Oc2ccccc2)CN1c1cc(-n2ccnc2)c2ccc(Cl)c(Cl)c2n1 [I-362]
,< 2000 nM,,,"CN(CCN(CCC(=O)O)S(C)(=O)=O)c1cc(-n2ccnc2)c2ccc(Cl)c(Cl)c2n1 [I-634, 3-(N-(2-((7,8-dichloro-4-(1H-imidazol-1-yl)quinolin-2-yl)(methyl)amino)ethyl)methylsulfonamido) propanoic acid]"
